Read-outs that look alike come from different tables or passages of the source.
What was measured:
[1] = test system: Vitex extra cellular peroxidase; type: biochemical, Vitex negundo
[2] = test system: callus cultures of Nirgundi (Vitex negundo); test: Effect of growth regulators on callus growth and enzyme activity of callus cultures; type: cell-based; details: MS medium, Vitex negundo leaf callus; result in words
Description: Leaf tissues were taken as explants for callus initiation after being properly washed in 10% Labolene followed by surface sterilization in 0.1% Mercuric chloride under aseptic conditions and inoculated in Murashige and Skoog (MS) medium containing 3% sucrose, 0.8% agar in addition to plant growth regulators like kinetin (6-furfuryl amino purine), BAP (benzyl amino purine), 2,4-D (2,4-dichlorophenoxyacetic acid), NAA (naphthalene acetic acid), IBA (indole-3-butyric acid) alone and in different combinations and sub culturing was also done in similar hormone combinations for proliferation. When no hormone was supplied in the medium, callus growth was very slow albeit showing good peroxidase activity. […] The pH was kept at 5.8 in all the experiments. Once established, the liquid suspension was maintained by the sub-culturing of 10 ml each of 7 day culture into 100 ml of fresh media in 250 ml Erlenmeyer flasks and the CCAs were also maintained by the subsequent sub-culturing of 5 g each of the sample into fresh liquid media and the flasks were placed on a gyratory shaker at 120 rpm in the light at 25° C. Viability as well as activity was maintained even after a period of 6 months.

Row | SMILES | Relative activity(%) ([1]; Reagent 1 Mm, None = 100) | Effect on Vitex peroxidase activity (inhibitor / enhancer / no change) ([1]; result in words) | other results
1 | [I-].[K+] [KI] | 116% | – | –
2 | [Cl][Hg][Cl] [HgCl2] | 62% | Inhibitors | inhibition ([1]; HgCl2, text b118): 60%
3 | O=C(O)Cc1c[nH]c2ccccc12 [IAA] | – | – | Effect on callus growth and enzyme activity [2]: reduce both the callus growth as well as enzyme activity
4 | [Cl-].[Na+] [NaCl] | – | – | Effect on Vitex peroxidase activity (inhibitor / enhancer / no change) [1]: enhancers; Relative activity(%) [1]: 110%
5 | [Ca+2].[Cl-].[Cl-] [CaCl2] | 103% | no change in activity | –
6 | O=S(=O)([O-])[O-].[Mg+2] [MgSO4] | 97% | no change in activity | –
7 | c1ccc(CNc2ncnc3[nH]cnc23)cc1 [BA, benzyl amino purine] | – | – | Effect on callus growth and enzyme activity [2]: better callus growth as well as enzyme activity
8 | O=C(O)CN(CCN(CC(=O)O)CC(=O)O)CC(=O)O [EDTA] | – | – | Effect on Vitex peroxidase activity (inhibitor / enhancer / no change) [1]: enhancers; Relative activity(%) [1]: 113%
9 | [N-]=[N+]=[N-].[Na+] [NaN3, sodium azide] | 73% | enhancers | inhibition (reduction in activity) ([1]; 0.1 ml of 1 mM sodium azide in 2.4 ml of total assay volume): 30%
10 | O=S(=O)([O-])[O-].[Mn+2] [MnSO4] | 131% | enhancers | –
11 | O=C(O)COc1ccc(Cl)cc1Cl [2,4-D, 2,4-dichlorophenoxyacetic acid] | – | – | Effect on callus growth and enzyme activity [2]: reduce both the callus growth as well as enzyme activity
12 | O=S(=O)([O-])[O-].[Zn+2] [ZnSO4] | 138% | enhancers | –

Reference: patent publication US7390641B2, “Production of peroxidase from plant cell and callus cultures” (Council of Scientific and Industrial Research, priority 2004, dated 2008)
